By pKi is commonly meant the negative decadic logarithm of the Ki, by convention in mol/L. Higher therefore signals a small Ki.

pKi: −log10 of the molar value.

In this experiment the test system is WiDr. Put plainly: Compound was tested for inhibition of 14C-Tryptophan uptake in WiDr human adenocarcinoma cells and the effect was determined at 0-100 uM concentration. The format is functional, cell-based.
In turn, `CCCNc1ccc2c(c1)CC(N)(C(=O)O)CC2` (stereo not drawn) gave a pKi of 5.77. Take `CN(C)c1ccc2c(c1)CC(N)(C(=O)O)CC2` (stereo not drawn): the pKi is 5.85. This pKi and that of the molecule before are within 0.2 log units of each other. Turning to `NC1(C(=O)O)CCc2ccccc2C1` (stereo not drawn), the pKi is 4.43. Regarding `NC1(C(=O)O)CCc2ccc(N(CCO)CCO)cc2C1` (stereo not drawn), the pKi is 5.85. The value for `CC(C)Nc1ccc2c(c1)CC(N)(C(=O)O)CC2` (stereo not drawn) was 6.22; that for `Nc1ccc2c(c1)CC(N)(C(=O)O)CC2` (stereo not drawn) was 4.47; that for `NC1(C(=O)O)CCc2ccc(N(CCCl)CCCl)cc2C1` (stereo not drawn) was 6.10. As for `CCCN(CCC)c1ccc2c(c1)CC(N)(C(=O)O)CC2` (stereo not drawn), the pKi was 5.13.

Source of the values: ChEMBL document CHEMBL1151096, “7-aminoalkyl-2-amino-1,2,3,4-tetrahydro-2-naphthoic acids as inhibitors of tryptophan uptake” (Bioorg Med Chem Lett, 1992).
